Data as given in ChEMBL document CHEMBL1201862, “PubChem BioAssay data set” (2004).
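How tested: cells in 96-well plates exposed to compound for 48 hours at five concentrations. GI50 is the concentration that inhibits growth by half.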 Activity calls are given as the source filed them. Cut-off read from the data, not from the text of the source: active = GI50 up to about 1.1 µM and inactive = higher.

Legend:
Experiment in all cases: NCI anticancer screen, dose series, 48 h
CAKI-1 = test system: CAKI-1
RXF 393 = test system: RXF 393
EKVX = test system: EKVX
HCC 2998 = test system: HCC 2998
HT-29 = test system: HT-29
OVCAR-3 = test system: OVCAR-3
SF-539 = test system: SF-539
UACC-62 = test system: UACC-62
SK-OV-3 = test system: SK-OV-3
OVCAR-4 = test system: OVCAR-4
OVCAR-5 = test system: OVCAR-5
NCI-H23 = test system: NCI-H23
HOP-92 = test system: HOP-92
SF-295 = test system: SF-295
NCI-H226 = test system: NCI-H226
NCI-H522 = test system: NCI-H522
HCT-15 = test system: HCT-15
TK-10 = test system: TK-10
SW-620 = test system: SW-620
A549 = test system: A549

Structure (SMILES)	GI50 (CAKI-1)	GI50 (RXF 393)	GI50 (EKVX)	GI50 (HCC 2998)	GI50 (HT-29)	GI50 (OVCAR-3)	GI50 (SF-539)	GI50 (UACC-62)	GI50 (SK-OV-3)	GI50 (OVCAR-4)	GI50 (OVCAR-5)	GI50 (NCI-H23)	GI50 (HOP-92)	GI50 (SF-295)	GI50 (NCI-H226)	GI50 (NCI-H522)	GI50 (HCT-15)	GI50 (TK-10)	GI50 (SW-620)	GI50 (A549)
N#Cc1cnn2ccn(C3OC(COC(=O)c4ccccc4)C(OC(=O)c4ccccc4)C3OC(=O)c3ccccc3)c12 (stereo not given)	17.2 µM (inactive)	> 21.5 µM (inactive)	> 21.5 µM (inactive)	> 21.5 µM (inactive)	> 21.5 µM (inactive)	> 21.5 µM (inactive)	> 21.5 µM (inactive)	> 21.5 µM (inactive)	> 21.5 µM (inactive)	> 21.5 µM (inactive)	> 21.5 µM (inactive)	> 21.5 µM (inactive)	> 31.6 µM (inactive)	> 21.5 µM (inactive)	> 21.5 µM (inactive)	> 21.5 µM (inactive)	> 21.5 µM	> 31.6 µM (inactive)	> 21.5 µM (inactive)	> 21.5 µM (inactive)
CC(=O)/C=C\C(=O)NNS(=O)(=O)c1ccc(C)cc1	> 100 µM (inactive)	> 100 µM (inactive)	> 100 µM (inactive)	> 100 µM (inactive)	> 100 µM (inactive)	> 100 µM (inactive)	> 100 µM (inactive)	> 100 µM (inactive)	> 100 µM (inactive)	> 100 µM (inactive)	> 100 µM (inactive)	> 100 µM (inactive)	> 100 µM (inactive)	> 100 µM (inactive)	> 100 µM (inactive)	> 100 µM (inactive)	> 100 µM	> 100 µM (inactive)	> 100 µM (inactive)	> 100 µM (inactive)
O=C1CC(c2ccsc2)n2cccc21 (stereo not given)	> 100 µM (inactive)	> 100 µM (inactive)	> 100 µM (inactive)	> 100 µM (inactive)	> 100 µM (inactive)	> 100 µM (inactive)	> 100 µM (inactive)	> 100 µM (inactive)	> 100 µM (inactive)	> 100 µM (inactive)	> 100 µM (inactive)	> 100 µM (inactive)	> 100 µM (inactive)	> 100 µM (inactive)	> 100 µM (inactive)	> 100 µM (inactive)	> 100 µM	> 100 µM (inactive)	> 100 µM (inactive)	> 100 µM (inactive)
CCCN(CCCCC(NC(C)=O)C(=O)NCc1ccccc1)C(=O)NC (stereo not given)	> 100 µM (inactive)	> 100 µM (inactive)	> 100 µM (inactive)	> 100 µM (inactive)	> 100 µM (inactive)	> 100 µM (inactive)	> 100 µM (inactive)	> 100 µM (inactive)	> 100 µM (inactive)	> 100 µM (inactive)	> 100 µM (inactive)	> 100 µM (inactive)	> 100 µM (inactive)	> 100 µM (inactive)	> 100 µM (inactive)	> 100 µM (inactive)	> 100 µM	> 100 µM (inactive)	> 100 µM (inactive)	> 100 µM (inactive)
Cc1c(N)nc(C(CC(N)=O)NCC(N)C(N)=O)nc1C(=O)NC(C(=O)NC(C)C(O)C(C)C(=O)NC(C(=O)NCCc1nc(-c2nc(C(=O)NCCCNCCCCN)cs2)cs1)C(C)O)C(OC1OC(CO)C(O)C(O)C1OC1OC(CO)C(O)C(OC(N)=O)C1O)c1c[nH]cn1 (stereo not given)	0.00178 µM (active)	0.29 µM (active)	> 10 µM (inactive)	> 10 µM (inactive)	> 10 µM (inactive)	> 6.28 µM (inactive)	0.0655 µM (active)	2.71 µM (inactive)	> 10 µM (inactive)	> 6.46 µM (inactive)	> 10 µM (inactive)	1.79 µM (inactive)	0.0724 µM (active)	0.0731 µM (active)	0.233 µM (active)	2.1 µM (inactive)	> 5.64 µM	> 10 µM (inactive)	> 10 µM (inactive)	4.81 µM (inactive)
O=c1cc(-c2ccccc2)oc2cc(OCCCOc3ccc4c(=O)cc(-c5ccccc5)oc4c3)ccc12	> 100 µM (inactive)	> 100 µM (inactive)	> 100 µM (inactive)	> 100 µM (inactive)	> 100 µM (inactive)	> 100 µM (inactive)	> 100 µM (inactive)	> 100 µM (inactive)	> 100 µM (inactive)	> 100 µM (inactive)	> 100 µM (inactive)	> 100 µM (inactive)	> 100 µM (inactive)	> 100 µM (inactive)	> 100 µM (inactive)	> 100 µM (inactive)	> 100 µM	> 100 µM (inactive)	> 100 µM (inactive)	> 100 µM (inactive)
O=c1[nH]cnc2[nH]nnc12	1.25 µM (inactive)	2.62 µM (inactive)	> 100 µM (inactive)	18.1 µM (inactive)	7.96 µM (inactive)	14 µM (inactive)	3.85 µM (inactive)	0.968 µM (active)	4.31 µM (inactive)	4.93 µM (inactive)	29.8 µM (inactive)	35.6 µM (inactive)	2.19 µM (inactive)	8.65 µM (inactive)	5.6 µM (inactive)	9.51 µM (inactive)	11.6 µM	7.52 µM (inactive)	1.49 µM (inactive)	84.9 µM (inactive)
